Measured values as given in patent US11629171B2, “Beta-hairpin peptidomimetics” (POLYPHOR AG, priority 2017, dated 2023).
In brackets after ≈: the same amount, converted by molar mass. Where a SMILES comes first, the peptide text is derived from it. Bridges are numbered along the chain shown (N, C = ends). Roman numbers before positions name the chains, in order. [ ]: non-standard residue; d: D form. Pen = CC(C)(S)[C@H](N)C(=O)O; Tle = CC(C)(C)[C@H](N)C(=O)O; dDab = NCC[C@@H](N)C(=O)O; hSer = N[C@@H](CCO)C(=O)O; Orn = NCCC[C@H](N)C(=O)O; Dab = NCC[C@H](N)C(=O)O; Dap = NC[C@H](N)C(=O)O; Mpa = O=C(O)CCS

Legend:
Type in all cases: cell-based
Escherichia coli 926415 = conditions: 926415
Summary of the method: (§1)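 CLSI broth microdilution in cation-adjusted Mueller-Hinton II broth with 0.002% polysorbate 80 (final), inoculum appr. 10^6 CFU/mL, peptides in serial two-fold dilutions. MIC (μg/mL) is the lowest concentration without visible growth after 18-20 h at 35° C.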

[1] = tested on: Klebsiella pneumoniae SSI #3010; conditions: SSI #3010
Summary of the method: as §1

[2] = tested on: Klebsiella pneumoniae 968733; conditions: 968733
Summary of the method: as §1

[3] = tested on: Enterobacter cloacae 848840; conditions: 848840
Summary of the method: as §1

[4] = tested on: Escherichia coli ATCC 25922; conditions: ATCC 25922
Summary of the method: as §1

[5] = tested on: Acinetobacter baumannii 872842; conditions: 872842
Summary of the method: as §1

[6] = tested on: Acinetobacter baumannii DSM 30008; conditions: DSM 30008
Summary of the method: as §1

[7] = tested on: Pseudomonas aeruginosa ATCC 27853; conditions: ATCC 27853
Summary of the method: as §1

[8] = tested on: human red blood cells (hRBC); test: Hemolysis; conditions: red cells of human, 1 h, 200
Summary of the method: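 Read-out is supernatant absorbance at 540 nm, normalised to full lysis by 2% Triton X-100 and zero lysis by PBS with 10% water. Peptides (200 μg/mL) were exposed to 20% v/v washed human erythrocytes at 37° C for 1 h under shaking.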

| MIC (Escherichia coli 926415) [µg/mL] | MIC [1] [µg/mL] | MIC [2] [µg/mL] | MIC [3] [µg/mL] | MIC [4] [µg/mL] | MIC [5] [µg/mL] | MIC [6] [µg/mL] | MIC [7] [µg/mL] | Klebsiella pneumoniae SSI #3010 MIC [1] [µg/mL] | Escherichia coli ATCC 25922 MIC [4] [µg/mL] | Acinetobacter baumannii DSM 30008 MIC [6] [µg/mL] | Pseudomonas aeruginosa ATCC 27853 MIC [7] [µg/mL] | Compound | Hemolysis at 200 μg/mL [8] [%] |
| --- | --- | --- | --- | --- | --- | --- | --- | --- | --- | --- | --- | --- | --- |
| 0.125 (≈ 0.0528 µM) | 0.125 (≈ 0.0528 µM) | 0.25 (≈ 0.106 µM) | 0.125 (≈ 0.0528 µM) | 0.0625 (≈ 0.0264 µM) | 0.0625 (≈ 0.0264 µM) | 0.0625 (≈ 0.0264 µM) | 0.25 (≈ 0.106 µM) | – | – | – | – | CC(=O)N[C@@H](Cc1ccccc1)C(=O)N[C@H]1CCCNC(=O)[C@@H]([C@H](C)O)NC(=O)[C@H](C(C)(C)C)NC(=O)[C@H](CO)NC(=O)[C@H](Cc2c[nH]c3ccccc23)NC(=O)[C@H](CCO)NC(=O)[C@@H](CCN)NC(=O)[C@H](CCC(=O)N[C@@H](CCN)C(=O)N[C@H](C(=O)N[C@@H](CN)C(=O)N[C@H]2CCNC(=O)[C@H]([C@@H](C)O)NC(=O)[C@H](CCN)NC(=O)[C@H](CCN)NC(=O)[C@H](CC(C)C)NC(=O)[C@@H](CC(C)C)NC(=O)[C@H](CCN)NC2=O)[C@@H](C)O)NC(=O)[C@H](CN)NC(=O)[C@H](Cc2ccc(O)cc2)NC1=O [Ex. 36] (I: Ac-F[Orn]Y[Dap]E[dDab][hSer]WS[Tle][dT] / II: [Dab]T[Dap][Dab][Dab][dL]L[Dab][Dab]T; lactam I:2-I:C, II:4-II:C; amide I:5-II:N) | <1 |
| 0.125 (≈ 0.0509 µM) | 0.125 (≈ 0.0509 µM) | 0.25 (≈ 0.102 µM) | 0.125 (≈ 0.0509 µM) | 0.03125 (≈ 0.0127 µM) | 0.0625 (≈ 0.0254 µM) | 0.0625 (≈ 0.0254 µM) | 0.125 (≈ 0.0509 µM) | – | – | – | – | CC(=O)N[C@H](C(=O)N[C@H](C(=O)N[C@@H](Cc1ccc(O)cc1)C(=O)N[C@H]1CSSC(C)(C)[C@@H](C(=O)N[C@H](C(=O)N[C@@H](CO)C(=O)N[C@H](C(N)=O)[C@@H](C)O)C(C)(C)C)NC(=O)[C@H](Cc2c[nH]c3ccccc23)NC(=O)[C@H](CCN)NC(=O)[C@@H](CCN)NC(=O)[C@H](CCC(=O)N[C@@H](CCN)C(=O)N[C@H](C(=O)N[C@@H](CN)C(=O)N[C@H]2CCNC(=O)[C@H]([C@@H](C)O)NC(=O)[C@H](CCN)NC(=O)[C@H](CCN)NC(=O)[C@H]([C@@H](C)O)NC(=O)[C@@H](CC(C)C)NC(=O)[C@H](CCN)NC2=O)[C@@H](C)O)NC1=O)[C@@H](C)O)C(C)C [Ex. 224] (I: Ac-VTYCE[dDab][Dab]W[Pen][Tle]ST-NH2 / II: [Dab]T[Dap][Dab][Dab][dL]T[Dab][Dab]T; disulfide I:4-I:9; amide I:5-II:N; lactam II:4-II:C) | 1 |
| 0.125 (≈ 0.0509 µM) | – | 0.0625 (≈ 0.0254 µM) | 0.0625 (≈ 0.0254 µM) | – | 0.0625 (≈ 0.0254 µM) | – | – | 0.03125 | 0.01562 | 0.01562 | 0.0625 | CC(=O)N[C@H](C(=O)N[C@H]1CSSC[C@@H](C(=O)NCC(=O)N[C@H](CO)C(N)=O)NC(=O)[C@H](C(C)C)NC(=O)[C@H](CO)NC(=O)[C@H](Cc2c[nH]c3ccccc23)NC(=O)[C@H](CO)NC(=O)[C@@H](CCN)NC(=O)[C@H](CCC(=O)N[C@@H](CCN)C(=O)N[C@H](C(=O)N[C@@H](CN)C(=O)N[C@H]2CCNC(=O)[C@H]([C@@H](C)O)NC(=O)[C@H](CCN)NC(=O)[C@H](CCN)NC(=O)[C@H](CC(C)C)NC(=O)[C@@H](CC(C)C)NC(=O)[C@H](CCN)NC2=O)[C@@H](C)O)NC(=O)[C@H](CCN)NC(=O)[C@H](Cc2ccc(O)cc2)NC1=O)C(C)C [Ex. 377] (I: Ac-VCY[Dab]E[dDab]SWSVCG[dS]-NH2 / II: [Dab]T[Dap][Dab][Dab][dL]L[Dab][Dab]T; disulfide I:2-I:11; amide I:5-II:N; lactam II:4-II:C) | <1 |
| 1 (≈ 0.413 µM) | – | 1 (≈ 0.413 µM) | 1 (≈ 0.413 µM) | – | 0.5 (≈ 0.207 µM) | – | – | 0.0625 | 0.0625 | 0.25 | 0.25 | CC(=O)N[C@H](C(=O)N[C@H]1CCN(C)C(=O)CC[C@@H](C(=O)N[C@@H](CO)C(N)=O)NC(=O)[C@H](C(C)C)NC(=O)[C@H](CO)NC(=O)[C@H](Cc2c[nH]c3ccccc23)NC(=O)[C@H](CO)NC(=O)[C@@H](CCN)NC(=O)[C@H](CCC(=O)N[C@@H](CCN)C(=O)N[C@H](C(=O)N[C@@H](CN)C(=O)N[C@H]2CCNC(=O)[C@H]([C@@H](C)O)NC(=O)[C@H](CCN)NC(=O)[C@H](CCN)NC(=O)[C@H](CC(C)C)NC(=O)[C@@H](CC(C)C)NC(=O)[C@H](CCN)NC2=O)[C@@H](C)O)NC(=O)[C@H](CCN)NC(=O)[C@H](Cc2ccc(O)cc2)NC1=O)C(C)C [Ex. 303] | <1 |
| 0.25 (≈ 0.107 µM) | 0.0625 (≈ 0.0268 µM) | 0.125 (≈ 0.0536 µM) | 0.25 (≈ 0.107 µM) | 0.0625 (≈ 0.0268 µM) | 0.25 (≈ 0.107 µM) | 0.0625 (≈ 0.0268 µM) | 0.25 (≈ 0.107 µM) | – | – | – | – | CC(=O)N[C@H](C(=O)N[C@H]1CCCNC(=O)[C@@H]([C@H](C)O)NC(=O)[C@H](C(C)(C)C)NC(=O)[C@H](CO)NC(=O)[C@H](Cc2c[nH]c3ccccc23)NC(=O)[C@H](CCO)NC(=O)[C@@H](CCN)NC(=O)[C@H](CCC(=O)N[C@@H](CCN)C(=O)N[C@H](C(=O)N[C@@H](CN)C(=O)N[C@H]2CCNC(=O)[C@H]([C@@H](C)O)NC(=O)[C@H](CCN)NC(=O)[C@H](CCN)NC(=O)[C@H](CC(C)C)NC(=O)[C@@H](CC(C)C)NC(=O)[C@H](CCN)NC2=O)[C@@H](C)O)NC(=O)[C@H](CCN)NC(=O)[C@H](Cc2ccc(O)cc2)NC1=O)C(C)C [Ex. 16] (I: Ac-V[Orn]Y[Dab]E[dDab][hSer]WS[Tle][dT] / II: [Dab]T[Dap][Dab][Dab][dL]L[Dab][Dab]T; lactam I:2-I:C, II:4-II:C; amide I:5-II:N) | <1 |
| 0.0625 (≈ 0.0242 µM) | 0.0625 (≈ 0.0242 µM) | 0.125 (≈ 0.0484 µM) | 0.0625 (≈ 0.0242 µM) | 0.03125 (≈ 0.0121 µM) | 0.03125 (≈ 0.0121 µM) | 0.03125 (≈ 0.0121 µM) | 0.125 (≈ 0.0484 µM) | – | – | – | – | CC(C)C[C@@H]1NC(=O)[C@@H](CC(C)C)NC(=O)[C@H](CCN)NC(=O)[C@@H](NC(=O)[C@H](CN)NC(=O)[C@@H](NC(=O)[C@H](CCN)NC(=O)CC[C@@H]2NC(=O)[C@H](CO)NC(=O)[C@H](Cc3ccc(O)cc3)NC(=O)[C@H]([C@@H](C)O)NC(=O)[C@H](C(C)C)NC(=O)CCSSC[C@@H](C(N)=O)NC(=O)[C@H]([C@@H](C)O)NC(=O)[C@H](C)NC(=O)[C@H](C(C)(C)C)NC(=O)[C@H](CCC(=O)O)NC(=O)[C@H](Cc3c[nH]c4ccccc34)NC(=O)[C@H](CCN)NC(=O)[C@@H](CCN)NC2=O)[C@@H](C)O)CCNC(=O)[C@H]([C@@H](C)O)NC(=O)[C@H](CCN)NC(=O)[C@H](CCN)NC1=O [Ex. 250] (I: [Mpa]VTYSE[dDab][Dab]WE[Tle]ATC-NH2 / II: [Dab]T[Dap][Dab][Dab][dL]L[Dab][Dab]T; disulfide I:1-I:14; amide I:6-II:N; lactam II:4-II:C) | 1 |
| 0.5 (≈ 0.206 µM) | 0.125 (≈ 0.0515 µM) | 1 (≈ 0.412 µM) | 4 (≈ 1.65 µM) | 0.125 (≈ 0.0515 µM) | 0.5 (≈ 0.206 µM) | 0.0625 (≈ 0.0258 µM) | 0.125 (≈ 0.0515 µM) | – | – | – | – | CC(=O)N[C@H](C(=O)N[C@H]1CSSC[C@@H](C(=O)N[C@@H](CO)C(N)=O)NC(=O)[C@H](Cc2ccc(O)cc2)NC(=O)[C@H](CO)NC(=O)[C@H](Cc2c[nH]c3ccccc23)NC(=O)[C@H](CCO)NC(=O)[C@@H](CCN)NC(=O)[C@H](CCC(=O)N[C@@H](CCN)C(=O)N[C@H](C(=O)N[C@@H](CCN)C(=O)N[C@H]2CCNC(=O)[C@H]([C@@H](C)O)NC(=O)[C@H](CCN)NC(=O)[C@H](CCN)NC(=O)[C@H](CC(C)C)NC(=O)[C@@H](CC(C)C)NC(=O)[C@H](CCN)NC2=O)[C@@H](C)O)NC(=O)[C@H](CCN)NC(=O)[C@H](C(C)C)NC1=O)C(C)C [Ex. 64] (I: Ac-VCV[Dab]E[dDab][hSer]WSYCS-NH2 / II: [Dab]T[Dab][Dab][Dab][dL]L[Dab][Dab]T; disulfide I:2-I:11; amide I:5-II:N; lactam II:4-II:C) | <1 |
| 0.25 (≈ 0.108 µM) | 0.125 (≈ 0.0539 µM) | 0.25 (≈ 0.108 µM) | 0.125 (≈ 0.0539 µM) | 0.0625 (≈ 0.0269 µM) | 0.25 (≈ 0.108 µM) | 0.0625 (≈ 0.0269 µM) | 0.25 (≈ 0.108 µM) | – | – | – | – | CC(=O)N[C@H](C(=O)N[C@H]1CCCNC(=O)[C@@H]([C@H](C)O)NC(=O)[C@H](C(C)(C)C)NC(=O)[C@H](CO)NC(=O)[C@H](Cc2c[nH]c3ccccc23)NC(=O)[C@H](CCN)NC(=O)[C@@H](CCN)NC(=O)[C@H](CCC(=O)N[C@@H](CCN)C(=O)N[C@H](C(=O)N[C@@H](CN)C(=O)N[C@H]2CCNC(=O)[C@H]([C@@H](C)O)NC(=O)[C@H](CCN)NC(=O)[C@H](CCN)NC(=O)[C@H](CC(C)C)NC(=O)[C@@H](CC(C)C)NC(=O)[C@H](CCN)NC2=O)[C@@H](C)O)NC(=O)[C@H](CO)NC(=O)[C@H](Cc2ccc(O)cc2)NC1=O)C(C)C [Ex. 25] (I: Ac-V[Orn]YSE[dDab][Dab]WS[Tle][dT] / II: [Dab]T[Dap][Dab][Dab][dL]L[Dab][Dab]T; lactam I:2-I:C, II:4-II:C; amide I:5-II:N) | <1 |
